Patent US20230131966A1, “FUNGICIDAL AMIDES” (FMC Corporation, priority 2020, published 2023)

Tests used:
Type in all cases: in vivo
Botrytis cinerea = assay: Test E: tomato Botrytis control on tomato seedlings; conditions: 100 = 100% disease control, 0 = no control; for pest or weed control at 250 ppm / Test E disease control rating: 250 ppm
Zymoseptoria tritici = assay: Test C: wheat leaf blotch control on wheat seedlings; conditions: wheat seedlings, 100 = 100% disease control, 0 = no control; for pest or weed control at 250 ppm / Test C disease control rating: 250 ppm
[1] = test system: Puccinia recondita f. sp. tritici; assay: Test B: wheat leaf rust control on wheat seedlings; conditions: wheat seedlings, 100 = 100% disease control, 0 = no control; for pest or weed control at 250 ppm / Test B disease control rating: 250 ppm
Phakopsora pachyrhizi = assay: Test A: Asian soybean rust control on soybean seedlings; conditions: soybean seedlings, 100 = 100% disease control, 0 = no control; for pest or weed control at 250 ppm / Test A disease control rating: 250 ppm
[2] = test system: Erysiphe graminis f. sp. tritici; assay: Test G: wheat powdery mildew control on wheat seedlings; conditions: 100 = 100% disease control, 0 = no control; for pest or weed control at 250 ppm / Test G disease control rating: 250 ppm
Plasmopara viticola = assay: Test D: grape downy mildew control on grape seedlings; conditions: 100 = 100% disease control, 0 = no control; for pest or weed control at 250 ppm / Test D disease control rating: 250 ppm
Phytophthora infestans = assay: whole plant or invertebrate; conditions: tomato seedlings, 100 = 100% disease control, 0 = no control; for pest or weed control at 250 ppm: read-out: Test F disease control rating, 250 ppm; for Test F disease control rating: 250 ppm
[3] = Botrytis cinerea, read-out: Test E disease control rating
[4] = Zymoseptoria tritici, read-out: Test C disease control rating
[5] = Puccinia recondita, read-out: Test B disease control rating
[6] = Phakopsora pachyrhizi, read-out: Test A disease control rating
[7] = Blumeria graminis, read-out: Test G disease control rating
[8] = Plasmopara viticola, read-out: Test D disease control rating
[9] = Phytophthora infestans, in Solanum lycopersicum

## CC(NC(=O)c1cccc(N)c1O)C(=O)OC(C)c1ccccc1Cc1ccccc1 (racemic) [Compound 9]
Botrytis cinerea; [3]
  pest or weed control at 250 ppm: 0%
Zymoseptoria tritici; [4]
  pest or weed control at 250 ppm: 53%
[1]; [5]
  pest or weed control at 250 ppm: 91%
Phakopsora pachyrhizi; [6]
  pest or weed control at 250 ppm: 95%
[2]; [7]
  pest or weed control at 250 ppm: 0%
Plasmopara viticola; [8]
  pest or weed control at 250 ppm: 97%
Phytophthora infestans; [9]
  pest or weed control at 250 ppm: 76%

## COc1ccnc(C(=O)NC(C)C(=O)OC(C)c2ccncc2)c1O (racemic) [Compound 14]
Botrytis cinerea; [3]
  pest or weed control at 250 ppm: 0%
Zymoseptoria tritici; [4]
  pest or weed control at 250 ppm: 12%
[1]; [5]
  pest or weed control at 250 ppm: 0%
Phakopsora pachyrhizi; [6]
  pest or weed control at 250 ppm: 0%
[2]; [7]
  pest or weed control at 250 ppm: 0%
Plasmopara viticola; [8]
  pest or weed control at 250 ppm: 48%
Phytophthora infestans; [9]
  pest or weed control at 250 ppm: 0%

## COc1ccnc(C(=O)N[C@@H](C)C(=O)OC(C)C2CCCCC2)c1OC(C)=O (mixture of isomers) [Compound 29, N-[[3-(acetyloxy)-4-methoxy-2-pyridinyl]carbonyl]-L-alanine 1-cyclohexylethyl ester]
Botrytis cinerea; [3]
  pest or weed control at 250 ppm: 0%
Zymoseptoria tritici; [4]
  pest or weed control at 250 ppm: 95%
[1]; [5]
  pest or weed control at 250 ppm: 99%
Phakopsora pachyrhizi; [6]
  pest or weed control at 250 ppm: 100%
[2]; [7]
  pest or weed control at 250 ppm: 0%
Plasmopara viticola; [8]
  pest or weed control at 250 ppm: 17%
Phytophthora infestans; [9]
  pest or weed control at 250 ppm: 33%

## COc1ccnc(C(=O)N[C@@H](C)C(=O)OC(C)C2CCCCC2)c1O (mixture of isomers) [Compound 30, N-[(3-hydroxy-4-methoxy-2-pyridinyl)carbonyl]-L-alanine 1-cyclohexylethyl ester]
Botrytis cinerea; [3]
  pest or weed control at 250 ppm: 0%
Zymoseptoria tritici; [4]
  pest or weed control at 250 ppm: 97%
[1]; [5]
  pest or weed control at 250 ppm: 100%
Phakopsora pachyrhizi; [6]
  pest or weed control at 250 ppm: 100%
[2]; [7]
  pest or weed control at 250 ppm: 0%
Plasmopara viticola; [8]
  pest or weed control at 250 ppm: 1%
Phytophthora infestans; [9]
  pest or weed control at 250 ppm: 0%

## COc1ccnc(C(=O)N[C@@H](C)C(=O)OC(C)c2ccc(C3CCCCC3)cc2)c1OC(C)=O (mixture of isomers) [Compound 31, N-[[3-(acetyloxy)-4-methoxy-2-pyridinyl]carbonyl]-L-alanine 1-(4-cyclohexylphenyl)ethyl ester]
Botrytis cinerea; [3]
  pest or weed control at 250 ppm: 0%
Zymoseptoria tritici; [4]
  pest or weed control at 250 ppm: 87%
[1]; [5]
  pest or weed control at 250 ppm: 100%
Phakopsora pachyrhizi; [6]
  pest or weed control at 250 ppm: 100%
[2]; [7]
  pest or weed control at 250 ppm: 73%
Plasmopara viticola; [8]
  pest or weed control at 250 ppm: 1%
Phytophthora infestans; [9]
  pest or weed control at 250 ppm: 0%

## COc1ccnc(C(=O)N[C@@H](C)C(=O)OC(C)c2ccc(C3CCCCC3)cc2)c1O (mixture of isomers) [Compound 32, N-[(3-hydroxy-4-methoxy-2-pyridinyl)carbonyl]-L-alanine 1-(4-cyclohexylphenyl)ethyl ester]
Botrytis cinerea; [3]
  pest or weed control at 250 ppm: 0%
Zymoseptoria tritici; [4]
  pest or weed control at 250 ppm: 86%
[1]; [5]
  pest or weed control at 250 ppm: 99%
Phakopsora pachyrhizi; [6]
  pest or weed control at 250 ppm: 100%
[2]; [7]
  pest or weed control at 250 ppm: 0%
Plasmopara viticola; [8]
  pest or weed control at 250 ppm: 18%
Phytophthora infestans; [9]
  pest or weed control at 250 ppm: 0%

## COc1ccnc(C(=O)N[C@@H](C)C(=O)OC(C(C)C)C2CCCCC2)c1OC(C)=O (mixture of isomers) [Compound 62, N-[[3-(acetyloxy)-4-methoxy-2-pyridinyl]carbonyl]-L-alanine 1-cyclohexyl-2-methylpropyl ester]
Botrytis cinerea; Botrytis cinerea, 50 ppm, read-out: Test E disease control rating
  pest or weed control at 50 ppm: 0%
Zymoseptoria tritici; Zymoseptoria tritici, 50 ppm, read-out: Test C disease control rating
  pest or weed control at 50 ppm: 14%
[1]; Puccinia recondita, 50 ppm, read-out: Test B disease control rating
  pest or weed control at 50 ppm: 93%
Phakopsora pachyrhizi; Phakopsora pachyrhizi, 50 ppm, read-out: Test A disease control rating
  pest or weed control at 50 ppm: 100%
[2]; Blumeria graminis, 50 ppm, read-out: Test G disease control rating
  pest or weed control at 50 ppm: 0%
Plasmopara viticola; Plasmopara viticola, 50 ppm, read-out: Test D disease control rating
  pest or weed control at 50 ppm: 74%
Phytophthora infestans; Phytophthora infestans, in Solanum lycopersicum, read-out: Test F disease control rating, 50 ppm
  pest or weed control at 50 ppm: 0%

## COc1ccnc(C(=O)N[C@@H](C)C(=O)OC(C)c2ccc(C3CC3)cc2)c1O (mixture of isomers) [Compound 66, N-[(3-hydroxy-4-methoxy-2-pyridinyl)carbonyl]-L-alanine 1-(4-cyclopropylphenyl)ethyl ester]
Botrytis cinerea; [3]
  pest or weed control at 250 ppm: 0%
Zymoseptoria tritici; [4]
  pest or weed control at 250 ppm: 73%
[1]; [5]
  pest or weed control at 250 ppm: 100%
Phakopsora pachyrhizi; [6]
  pest or weed control at 250 ppm: 100%
[2]; [7]
  pest or weed control at 250 ppm: 21%
Plasmopara viticola; [8]
  pest or weed control at 250 ppm: 93%
Phytophthora infestans; [9]
  pest or weed control at 250 ppm: 0%

## COc1ccnc(C(=O)N[C@H](C(=O)OC(C)c2ccc(C3CCCCC3)cc2)C(C)C)c1OC(C)=O (mixture of isomers) [Compound 79, N-[[3-(acetyloxy)-4-methoxy-2-pyridinyl]carbonyl]-L-valine 1-(4-cyclohexylphenyl)ethyl ester]
Botrytis cinerea; [3]
  pest or weed control at 250 ppm: 0%
Zymoseptoria tritici; [4]
  pest or weed control at 250 ppm: 100%
[1]; [5]
  pest or weed control at 250 ppm: 100%
Phakopsora pachyrhizi; [6]
  pest or weed control at 250 ppm: 100%
[2]; [7]
  pest or weed control at 250 ppm: 0%
Plasmopara viticola; [8]
  pest or weed control at 250 ppm: 11%
Phytophthora infestans; [9]
  pest or weed control at 250 ppm: 0%

## CCC(OC(=O)[C@H](C)NC(=O)c1nccc(OC)c1OC(C)=O)C1CCCCC1 (mixture of isomers) [Compound 83, N-[[3-(acetyloxy)-4-methoxy-2-pyridinyl]carbonyl]-L-alanine 1-cyclohexylpropyl ester]
Botrytis cinerea; [3]
  pest or weed control at 250 ppm: 0%
Zymoseptoria tritici; [4]
  pest or weed control at 250 ppm: 97%
[1]; [5]
  pest or weed control at 250 ppm: 100%
Phakopsora pachyrhizi; [6]
  pest or weed control at 250 ppm: 100%
[2]; [7]
  pest or weed control at 250 ppm: 0%
Plasmopara viticola; [8]
  pest or weed control at 250 ppm: 27%
Phytophthora infestans; [9]
  pest or weed control at 250 ppm: 0%

## CCC(OC(=O)[C@H](C)NC(=O)c1nccc(OC)c1O)C1CCCCC1 (mixture of isomers) [Compound 84, N-[(3-hydroxy-4-methoxy-2-pyridinyl)carbonyl]-L-alanine 1-cyclohexylpropyl ester]
Botrytis cinerea; [3]
  pest or weed control at 250 ppm: 0%
Zymoseptoria tritici; [4]
  pest or weed control at 250 ppm: 57%
[1]; [5]
  pest or weed control at 250 ppm: 100%
Phakopsora pachyrhizi; [6]
  pest or weed control at 250 ppm: 100%
[2]; [7]
  pest or weed control at 250 ppm: 0%
Plasmopara viticola; [8]
  pest or weed control at 250 ppm: 21%
Phytophthora infestans; [9]
  pest or weed control at 250 ppm: 0%

## CCC(OC(=O)[C@H](C)NC(=O)c1nccc(OC)c1OC(C)=O)c1ccc(C2CCCCC2)cc1 (mixture of isomers) [Compound 100, N-[[3-(acetyloxy)-4-methoxy-2-pyridinyl]carbonyl]-L-alanine 1-(4-cyclohexylphenyl)propyl ester]
Botrytis cinerea; [3]
  pest or weed control at 250 ppm: 0%
Zymoseptoria tritici; [4]
  pest or weed control at 250 ppm: 88%
[1]; [5]
  pest or weed control at 250 ppm: 99%
Phakopsora pachyrhizi; [6]
  pest or weed control at 250 ppm: 100%
[2]; [7]
  pest or weed control at 250 ppm: 0%
Plasmopara viticola; [8]
  pest or weed control at 250 ppm: 32%
Phytophthora infestans; [9]
  pest or weed control at 250 ppm: 0%

## COc1ccnc(C(=O)N[C@@H](C)C(=O)OC(C)C2CCC(c3ccccc3)CC2)c1OC(C)=O (mixture of isomers) [Compound 104, N-[[3-(acetyloxy)-4-methoxy-2-pyridinyl]carbonyl]-L-alanine 1-(4-phenylcyclohexyl)ethyl ester]
Botrytis cinerea; [3]
  pest or weed control at 250 ppm: 0%
Zymoseptoria tritici; [4]
  pest or weed control at 250 ppm: 93%
[1]; [5]
  pest or weed control at 250 ppm: 100%
Phakopsora pachyrhizi; [6]
  pest or weed control at 250 ppm: 100%
[2]; [7]
  pest or weed control at 250 ppm: 0%
Plasmopara viticola; [8]
  pest or weed control at 250 ppm: 65%
Phytophthora infestans; [9]
  pest or weed control at 250 ppm: 0%

## COc1ccnc(C(=O)N[C@@H](C)C(=O)OC(C)c2ccccc2-c2ccccc2)c1O (single isomer, unassigned) [Compound 1]
Botrytis cinerea
  Test E disease control rating: 0%
Zymoseptoria tritici
  Test C disease control rating: 81%
[1]
  Test B disease control rating: 89%
Phakopsora pachyrhizi
  Test A disease control rating: 100%
[2]
  Test G disease control rating: 0%
Plasmopara viticola
  Test D disease control rating: 36%
Phytophthora infestans
  Test F disease control rating: 0%

## COc1ccnc(C(=O)N[C@@H](C)C(=O)OC(C)c2ccccc2-c2ccccc2)c1O (single isomer, unassigned) [Compound 2]
Botrytis cinerea
  Test E disease control rating: 0%
Zymoseptoria tritici
  Test C disease control rating: 73%
[1]
  Test B disease control rating: 55%
Phakopsora pachyrhizi
  Test A disease control rating: 99%
[2]
  Test G disease control rating: 0%
Plasmopara viticola
  Test D disease control rating: 63%
Phytophthora infestans
  Test F disease control rating: 0%

## COc1ccnc(C(=O)N[C@@H](C)C(=O)OC(C)c2cccc(-c3ccccc3)c2)c1O (single isomer, unassigned) [Compound 3]
Botrytis cinerea
  Test E disease control rating: 16%
Zymoseptoria tritici
  Test C disease control rating: 83%
[1]
  Test B disease control rating: 99%
Phakopsora pachyrhizi
  Test A disease control rating: 100%
[2]
  Test G disease control rating: 0%
Plasmopara viticola
  Test D disease control rating: 32%
Phytophthora infestans
  Test F disease control rating: 0%

## COc1ccnc(C(=O)N[C@@H](C)C(=O)OC(C)c2cccc(-c3ccccc3)c2)c1O (single isomer, unassigned) [Compound 4]
Botrytis cinerea
  Test E disease control rating: 31%
Zymoseptoria tritici
  Test C disease control rating: 28%
[1]
  Test B disease control rating: 41%
Phakopsora pachyrhizi
  Test A disease control rating: 99%
[2]
  Test G disease control rating: 0%
Plasmopara viticola
  Test D disease control rating: 56%
Phytophthora infestans
  Test F disease control rating: 0%

## COc1cccc(C(=O)N[C@@H](C)C(=O)OC(C)c2ccccc2Cc2ccccc2)c1OC(C)=O (single isomer, unassigned) [Compound 7]
Botrytis cinerea
  Test E disease control rating: 0%
Zymoseptoria tritici
  Test C disease control rating: 0%
[1]
  Test B disease control rating: 0%
Phakopsora pachyrhizi
  Test A disease control rating: 0%
[2]
  Test G disease control rating: 0%
Plasmopara viticola
  Test D disease control rating: 35%
Phytophthora infestans
  Test F disease control rating: 0%
